Source: patent publication US8652442B2, “Bioluminescence imaging of myeloperoxidase activity in vivo, methods, compositions and apparatuses therefor” (Washington University, priority 2008, dated 2014)
Where two headings read alike, the source gives them in different places. One block for each molecule: values may come before it.

Tests used:
[1] = tested on: PMA-stimulated whole blood
Method: Blood was freshly drawn (100-300 μL, by jugular puncture) from MPO^−/− or control MPO^+/+ mice. Blood was stored for up to 6 h in heparinized tubes at room temperature. Ex vivo BLI experiments using whole blood were performed in black-coated 96-well plates. Briefly, 1 μL of blood was diluted in 200 μL of MEBSS supplemented with luminol (100 μM), in the absence or presence of increasing concentrations of 4-ABAFT (0-6.6 mM), L-NMMA (1 mM) or DPI (10 μM). Samples were imaged (exposure time, 60 sec; binning, 4; FOV, 10 cm; open filter) before (t=0) and at the indicated time points after stimulation with PMA (5 μM) or vehicle (DMSO, 1 μL). Photon fluxes±s.e.m. were plotted as a function of time post PMA (min) or concentration of inhibitor.
Luminol-oxidation can be visualized by bioluminescence imaging and is dependent on MPO activity in vitro. Luminol-dependent BL of stimulated phagocytes and whole blood has been extensively studied using photo-multiplier tube (PMT)-based luminometers. To determine whether BLI could be similarly used to detect oxidant production in biological material, we used a charge-coupled device (CCD)-based bioluminescence imaging system to monitor phagocyte activation in heparinized whole blood (1 μL). Fresh heparinized whole blood (1 μL) was incubated with luminol (100 μM) in MEBSS (200 μL). […] Images show sequential color-coded maps of photon flux superimposed on black & white photographs of the assay plates (FIG. 1b).
It is important to note that metals such as iron are highly abundant in blood, but are confined to specific cellular compartments, i.e., hemoglobin in erythrocytes or cytochromes in mitochondrial membranes. […] At t=0, PMA was added to a final concentration of 5 μM and BL was monitored for 60 min at 7.5 min intervals.
To determine the relative contribution of other ROS to the BL signal induced by luminol in stimulated blood ex vivo, we focused on two enzymatically-catalyzed ROS products, O2.- and NO., generated by the Phox complex and nitric oxide synthase (NOS), respectively, as well as their reaction product, peroxynitrite (ONOO^−). Freshly-drawn blood (1 μL) from an MPO^+/+ mouse was incubated with the NOS inhibitor L-NMMA (1 mM) or the Phox inhibitor DPI (10 μM), respectively, and imaged 20 min after stimulation with PMA (5 μM).

MPO [2] = target: T1, MPO (Homo sapiens, UniProt P05164); assay: Dye stability: absorption spectra after treatment with H2O2 and MPO; format: physicochemical; parameters: purchased Calbiochem; conditions: H2O2 and MPO in Tris buffer, 30, 60 and 90 min
Method: In these experiments, absorption spectra were collected for Texas Red (TXR) and Infrared Dye 820 (IRD) treated with H2O2 and MPO (5 mU) in Tris buffer solution for 30 min, 60 min and 90 min as indicated. […] In these experiments, absorption spectra were collected (RLU vs nm wavelength) of Texas Red (TXR) and Infrared Dye 820 (IRD) treated with H2O2 and MPO ([…]) in Tris buffer solution for 30 min, 60 min and 90 min as indicated. (FIG. 17). […] (FIG. 18). […] Thus, in vitro NIR bioluminescence can be used to study dye and fluorophore stability under various experimental conditions. […]

MPO activity [3] = assay: BLI of allergic contact hypersensitivity with topical LGTR or luminol, optical filter sets; format: in vivo, mice
Method: Thirty min later, mice were simultaneously imaged in the IVIS 100 imaging system (FOV, 10 cm; binning, 8; acquisition time, 300 sec; f/stop, 1) using four different optical filter sets in rapid sequence: 1) no filter, 2) <510 nm filter, 3) >590 nm filter, and 4) >650 nm filter (FIG. 22, FIG. 23). The photon flux as a percentage of an open filter was compared for both compounds (FIG. 23).
Briefly, murine anti-DNP IgE (20 μg, 100 μl) was intravenously injected to two C57/B mice.
Administration of luminol derivatives and imaging: Forty-eight hours post DNFB treatment, luminol-glycine Texas Red (LGTR, 1 mM in DMSO, left mouse) or luminol (1 mM In DMSO, right mouse) were applied topically (45 μl per ear) on both left and right ears. Thirty minutes later, mice were simultaneously imaged using the IVIS 100 imaging system (FOV 10 cm; binning, 8; acquisition time. 300 sec; f/stop, 1) using four different optical filler sets: (1) no filter, (2)<510 nm filler, (3)>590 nm filter and (4)>650 nm filter.

human blood = assay: Ex vivo BLI of LGTR and luminol in human whole blood after PMA stimulation; format: cell-based
Method: For analysis of LGTR in whole blood, human blood was freshly drawn from a volunteer (by venous puncture). Blood was stored for up to 6 h in heparinized tubes at room temperature. Ex vivo BLI experiments using whole blood were performed in black-coated 96-well plates. Briefly, 200 μL of blood was added to the wells. LGTR, luminol, or DMSO ([…] of each) were added to the wells. Samples were imaged (exposure time, 160 sec; binning, 8; FOV, 10 cm; open filter or >590 nm) before (t=0) and at the indicated time points after stimulation with PMA (5 μM) or vehicle (ethanol, 1 μL). Photon fluxes±s.e.m. were plotted as a function of time post PMA (min) (FIG. 19). […] In addition, to isolate the buffy coat (white cells), whole blood was centrifuged at 700 rpm for 8 min, and subjected to the same analysis.

purified MPO = target: T2, purified MPO (Homo sapiens, UniProt P05164); assay: Output of LGTR and luminol in vitro with purified MPO and H2O2; format: biochemical; conditions: for light output: purified MPO mixed with 100% serum rather than MEBSS
T2 construct: purchased Calbiochem
From the text: To analyze the output of LGTR and luminol in vitro, […] of each were mixed with purified MPO (5 mU) and vehicle (MEBSS).

[4] = systemic administration; cited from earlier work
MPO activity [5] = conditions: 24 h after DNFB, luminol 200 mg/kg BW i.p.
Method: Briefly, murine anti-DNP IgE (20 μg in 100 μl, Sigma-Aldrich) was injected intravenously into 13 MPO^+/+ and 9 MPO^−/− mice. One control mouse of each genetic MPO background was injected with vehicle (saline) only. Twenty-four hours later, all left ears were painted with DNFB (0.2% in acetone:olive oil, 1:3) and all right ears were painted with vehicle (acetone:olive oil, 1:3). On the next day, all mice were imaged following luminol administration (200 mg/kg BW, i.p.). Mice were euthanized immediately after imaging and histological specimens were prepared from both left and right ears by fixation with paraformaldehyde (4%), de-calcification (24 h in 14% EDTA), paraffin-embedding, sectioning (5 μm) and staining with H&E. For each condition, eosinophils were counted in 5 HPF (magnification ×400).
Eosinophil-dominant recruitment and activation was induced by passive immunization against DNP followed by topical challenge with DNFB (Ray, M., et al., J. Immunol. 131, 1096-1102, 1983) in both MPO+/+ control as well as MPO^−/− mice. […] Acute allergic dermatitis was induced by passive immunization with anti-DNP IgE and topical challenge with DNFB on the left ear lobes of MPO^+/+ (n=14) and MPO^−/− (n=10) mice. Right ears served as vehicle controls and mice challenged with DNFB, but not anti-DNP IgE, served as negative controls. […]

MPO activity [6] = conditions: mouse, in vivo
Method: GzB→Tax mice were monitored for tumorigenesis on ears, limbs and tails by visual examination and palpation, weekly, for 200-300 days after birth. Ten mice with visible tumors at various sizes (1-8 mm in diameter) and locations were administered luminol (200 mg/kg BW, i.p.) and imaged (exposure time, 300 sec; binning, 4; FOV, 10 cm) under anesthesia (isoflurane inhalation). Tumors were excised, fixed in paraformaldehyde (4%), paraffin-embedded, sectioned (5 μm) and stained with H&E or immuno-stained for MPO (see below).
We next used BLI to examine tumor-bearing GzB→Tax mice after intraperitoneal administration of luminol (200 mg/kg BW, i.p., FIG. 5 c-g).

MPO activity [7] = conditions: mouse, in vivo; remark: listed apart in the source
Method: MPO^−/− (n=5) or control MPO^+/+ (n=5) mice were briefly anaesthetized (isoflurane inhalation) and LPS (20 μg in 20 μL PBS) or vehicle (PBS, 20 μL) were injected into the left or right ankles, respectively, using a 30-gauge needle. Mice were administered luminol (as above) and imaged immediately after LPS administration under anesthesia (isoflurane inhalation), as well as 1, 2, 3, 4 and 5 days later (exposure time, 180 sec; binning, 4; FOV, 10 cm). ROIs were manually selected over the left and right feet (LPS-treated and untreated, respectively) and over the proximal part of the tail (background). Data were expressed as (LPS—background)/(vehicle—background)±s.e.m.
We next imaged MPO activity in a focal arthritis model. […] LPS was injected to the joints of the left lower limbs of wild type MPO^+/+ (FIG. 3b, left panel, n=5) or MPO^−/− mice (FIG. 3b, right panel, n=5). Vehicle (PBS) was injected into the joints of the right lower limbs. At t=0 (before LPS injection), 24, 48, 72, 96 and 120 h, luminol was administered (200 mg/kg BW, i.p.) and mice were imaged.

MPO activity [8] = conditions: mouse, in vivo; remark: listed apart in the source
Method: To induce acute skin inflammation (Fretland, D. J. et al. Inflammation 19, 333-346, 1995), PMA (100 μM, 20 μL) or vehicle (ethanol) were applied topically (left and right ear, respectively) on the inner and outer surface of the earlobe of MPO^−/− (n=5) or control (n=5) mice. Twenty-four and 48 hours later, luminol was administered (200 mg/kg BW, i.p.) and 10 min later mice were imaged (exposure time, 180 see; binning, 4; FOV, 7.5 cm) under anesthesia (isoflurane inhalation). ROI's were manually selected over the left and right ear lobes (PMA-treated and untreated, respectively) and over the central part of the skull (background). Data were expressed as (PMA—background)/(vehicle—background)±s.e.m.
Topical application of PMA onto the earlobes of mice induces acute dermatitis, manifested by local swelling, erythema and infiltration of neutrophils. […] We therefore used this model for assessment of MPO activity by luminol-BLI in both MPO^+/+ and MPO^−/− mice. Acute dermatitis was generated by topical application of PMA on the left ear lobe of MPO^+/+ or MPO^−/− mice (shown are three representative mice for each genetic background, n=5 for each). Twenty-four hours after topical application of PMA, mice were imaged (FIG. 3a) following the administration of luminol (200 mg/kg BW, i.p.).

MPO [9] = target: T1, MPO
Method: Matrigel was used to immobilize human MPO and/or GOX (that produces H2O2) in vivo (Chen, J. W., et al., Radiology 240, 473-481, 2006). Briefly, GOX (30 U), MPO (20 U), vehicle (PBS) or GOX+MPO (30 and 20 U, respectively) were added to Matrigel (200 μL) at 4° C. The four different mixtures were injected subcutaneously into different locations on the back of NCr nu/nu mice. Thirty minutes later, mice were anesthetized (isoflurane inhalation), administered luminol (200 mg/kg BW, i.p.) and imaged sequentially (exposure time, 60 sec; binning, 4; FOV, 7.5 cm) every 5 minutes up to one hour. Regions of interest (ROI) were manually selected over the four implants and total photon emissions from each implant were plotted as a function of time.
We next determined the biochemical requirements and pharmacokinetics of luminol-BL in an intact animal and whether MPO activity could be imaged in vivo. […] We embedded GOX (30 U), MPO (20 U); MPO+GOX (same concentrations) or vehicle (PBS) in Matrigel solution and established subcutaneous implants of these mixtures on the backs of NCR nu/nu mice (n=3, FIG. 2a).
Photon fluxes were determined from ROI's, manually drawn over the different implants and plotted as a function of time.

[10] = whole blood 1 μL, luminol 100 μM, PMA 5 μM

T1 sequence (P05164 279-745 limits assumed): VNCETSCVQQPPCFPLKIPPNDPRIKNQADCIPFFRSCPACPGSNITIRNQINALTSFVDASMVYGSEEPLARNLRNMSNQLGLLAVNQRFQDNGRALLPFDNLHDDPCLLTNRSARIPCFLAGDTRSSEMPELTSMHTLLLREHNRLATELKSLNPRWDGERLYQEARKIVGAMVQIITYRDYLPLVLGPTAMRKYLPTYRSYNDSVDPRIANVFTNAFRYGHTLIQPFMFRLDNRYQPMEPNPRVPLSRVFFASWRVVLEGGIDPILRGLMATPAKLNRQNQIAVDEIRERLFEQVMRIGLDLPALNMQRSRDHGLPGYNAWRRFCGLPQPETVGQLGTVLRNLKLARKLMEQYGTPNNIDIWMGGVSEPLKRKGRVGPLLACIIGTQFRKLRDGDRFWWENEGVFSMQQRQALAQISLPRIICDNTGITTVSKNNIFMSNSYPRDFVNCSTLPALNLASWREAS
T1 sequence (P05164 165-273 limits assumed): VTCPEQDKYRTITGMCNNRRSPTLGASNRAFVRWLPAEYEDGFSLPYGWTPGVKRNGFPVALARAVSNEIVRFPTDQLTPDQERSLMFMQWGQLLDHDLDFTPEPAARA
T2 sequence (P05164 279-745 limits assumed): as the sequence (P05164 279-745 limits assumed) above
T2 sequence (P05164 165-273 limits assumed): as the sequence (P05164 165-273 limits assumed) above

Compound: c1ccc2c(c1)[I+]c1ccccc1-2 [DPI, diphenyleneiodonium]
- effect on PMA-induced BL ([1]; DPI 10 μM, MPO+/+ mouse blood, imaged 20 min after PMA 5 μM): complete abrogation

Compound: CC1(C)C(=CC=C2CCCC(C=CC3=[N+](CCCCS(=O)(=O)[O-])c4ccc5ccccc5c4C3(C)C)=C2Cl)N(CCCCS(=O)(=O)[O-])c2ccc3ccccc3c21.[Na+] [IRD]
- stability on exposure to MPO over time (MPO [2]): loss of IRD molecular integrity over time

Compound: CN=C(N)NCCC[C@H](N)C(=O)O.O=C(O)CC(O)(CC(=O)O)C(=O)O [L-NMMA, L-N^G-monomethyl arginine citrate]
- effect on luminol-dependent BL ([1]; L-NMMA 1 mM, MPO+/+ mouse blood, imaged 20 min after PMA 5 μM): did not cause a significant reduction

Compound: O=C(CCCCCNS(=O)(=O)c1ccc(C2=c3cc4c5c(c3Oc3c2cc2c6c3CCCN6CCC2)CCC[N+]=5CCC4)c(S(=O)(=O)[O-])c1)NCC(=O)Nc1cccc2c(=O)[nH][nH]c(=O)c12 [LGTR]
- BL after induction of acute contact hypersensitivity (MPO activity [3]; MPO+/+ mice, 1 mM in DMSO topical, 45 μl per ear): substantial LGTR-BL
- photon flux compared with luminol (MPO activity [3]; filters >590 and 650 nm, topical 1 mM in DMSO): 3-4 fold
- signal over the luminol signals (human blood; early time points in whole blood): greater than 75%
- fraction of signal that was red (>590 nm) (human blood; human whole blood, 12 min post PMA stimulation): greater than 75%
- percent of the signal greater than 590 nm (red spectrum) (purified MPO; purified MPO 5 mU in MEBSS buffer, H2O2 50 μM): ~75%
- brightness compared with luminol (purified MPO; purified MPO in MEBSS buffer): brighter than luminol
- light output (purified MPO): no light output

Continued, in another order:

- light output (purified MPO): no light output
- signal-to-background ratio for luminol-BLI (MPO [9]; MPO+GOX Matrigel implants in vivo): exceeded 3000
- absorption upon i.p. injection (MPO [9]; luminol 200 mg/kg BW i.p.): rapidly absorbed
- time to maximum BL after injection (MPO [9]; luminol 200 mg/kg BW i.p., MPO+GOX implant, NCr nu/nu mice): 10 min
Compound: Nc1cccc2c(=O)[nH][nH]c(=O)c12 [luminol, 5-amino-2,3-dihydro-1,4-phthalazine-dione]
- photon output compared (human blood; human whole blood following PMA stimulation): exceeded LGTR
- absorption and excretion [4]: well absorbed and rapidly excreted
- toxicity [4]: relatively non-toxic
- signal-to-background ratio ([1]; few thousand phagocytes in 1 μL whole blood): > 30
- luminol-BL with whole blood of MPO−/− mice ([1]; luminol 100 μM, PMA 5 μM, 0-55 min): undetectable
- peak BL over background values [1, 10]: 30-40 fold
- time of BL peak post stimulation [1, 10]: 20 to 25 min
- luminol-BL signal from inflamed ears (MPO activity [5]; MPO+/+ mice): substantial luminol-BL
- luminol-BL signal from inflamed ears (MPO activity [5]; MPO−/− mice): no significant luminol-BL signal
- localization of luminol-BL in tumor-bearing mice (MPO activity [6]): colocalized with foci of tumorigenesis
- BL signal over background (MPO activity [7]): 10 to 15 fold
- luminol-BL from LPS- or vehicle-treated joints (MPO activity [7]): negligible
- peak BL emission, fold over vehicle-treated foot (MPO activity [7]): 25 to 30 fold
- BL of PMA-treated ears over vehicle-treated ears (MPO activity [8]): 1.9±0.5 fold
- background-normalized BL of PMA-treated ears over vehicle-treated ears (MPO activity [8]): 13.1±0.2 fold

- signal generated (purified MPO; control compound, purified MPO): no signal
Compound: NCC(=O)Nc1cccc2c(=O)[nH][nH]c(=O)c12 [luminol-glycine, 2-Amino-N-(1,4-dioxo-1,2,3,4-tetrahydrophthalazine-5-yl)acetamide]
